Reference: patent publication US10130624B2, “Pharmaceutical compositions of amlodipine and benazepril” (LUPIN LIMITED, priority 2005, dated 2018)

Test: Preformulation compatibility study: amlodipine and benazepril blends, with or without excipients, at accelerated stability conditions; colour change and degradation products by HPLC
Type: physicochemical
Conditions: without any excipients
Method: The studies were carried out by blending amlodipine & benazepril and then mixing with excipients in amounts intended to be used in the proposed compositions. For example, amlodipine:benazepril:diluent were blended in the ratio 0.7:1:10, amlodipine:benazepril:disintegrant were blended in the ratio 0.7:1:2, amlodipine:benazepril:binder were blended in the ratio 0.7:1:2, and amlodipine:benazepril:lubricant were blended in the ratio 0.7:1:0.5.

CCOC(=O)[C@H](CCc1ccccc1)N[C@H]1CCc2ccccc2N(CC(=O)O)C1=O [Benazepril alone, Benazepril]
Related substances: Amlodipine impurity D (Initial): 0.000% | Related substances: Benazepril impurity C (Initial): 0.130% | Related substances: Benazepril impurity G (Initial): 0.060% | Related substances: Total impurities (Initial): 0.260% | Related substances: Amlodipine impurity D (charged on stability, 3M): 0.000% | Related substances: Benazepril impurity C (charged on stability, 3M): 0.143% | Related substances: Benazepril impurity G (charged on stability, 3M): 0.000% | Related substances: Total impurities (charged on stability, 3M): 0.267%
